Source: PubChem BioAssay (NCI)
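48-hour exposure; five concentrations; linearly interpolated endpoints. The concentration for full growth arrest is given as TGI.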

Experiments:
Assay in all cases: growth of human tumour cells (NCI), 48 h
[1] = tested on: SK-OV-3 ovarian
[2] = tested on: HL-60(TB) leukemia
[3] = tested on: SF-295 CNS
[4] = tested on: SK-MEL-2 melanoma
[5] = tested on: KM12 colon
[6] = tested on: HCT-116 colon
[7] = tested on: CCRF-CEM leukemia
[8] = tested on: A549 NSCLC
[9] = tested on: SW-620 colon
[10] = tested on: OVCAR-4 ovarian
[11] = tested on: 786-0 renal
[12] = tested on: SR leukemia
[13] = tested on: K-562 leukemia
[14] = tested on: UO-31 renal
[15] = tested on: OVCAR-3 ovarian
[16] = tested on: NCI-H522 lung
[17] = tested on: SNB-75 CNS
[18] = tested on: NCI-H460 lung
[19] = tested on: SF-268 CNS
[20] = tested on: M14 melanoma
[21] = tested on: SK-MEL-5 melanoma
[22] = tested on: MOLT-4 leukemia
[23] = tested on: SK-MEL-28 melanoma
[24] = tested on: ACHN renal
[25] = tested on: DU-145 prostate
[26] = tested on: RXF 393 renal
[27] = tested on: TK-10 renal
[28] = tested on: HCC-2998 colon
[29] = tested on: MDA-MB-231 breast
[30] = tested on: IGROV1 ovarian
[31] = tested on: OVCAR-8 ovarian
[32] = tested on: MDA-MB-435
[33] = tested on: NCI-H23 lung
[34] = tested on: A498 renal
[35] = tested on: NCI-H226 lung
[36] = tested on: COLO 205 colon
[37] = tested on: CAKI-1 renal
[38] = tested on: MALME-3M melanoma
[39] = tested on: EKVX NSCLC
[40] = tested on: HS 578T breast
[41] = tested on: SF-539 CNS
[42] = tested on: HCT-15 colon
[43] = tested on: MDA-N
[44] = tested on: SN12C renal
[45] = tested on: NCI/ADR-RES ovarian
[46] = tested on: PC-3 prostate
[47] = tested on: MCF7 breast
[48] = tested on: UACC-257 melanoma
[49] = tested on: T-47D breast
[50] = tested on: UACC-62 melanoma
[51] = tested on: HT29 colon
[52] = tested on: OVCAR-5 ovarian
[53] = tested on: SNB-19 CNS
[54] = tested on: HOP-62 NSCLC
[55] = tested on: RPMI-8226 leukemia
[56] = tested on: LOX IMVI melanoma
[57] = tested on: HOP-92 NSCLC
[58] = tested on: U251 CNS

Measured: TGI

CN(C)C=Nc1ccc2nonc2c1
not listed: [56] | [57] | [58]
> 100 µM: all other assays above

CC(C)=CCC/C(C)=C\CC/C(C)=C/CO
38.2 µM: [47]
65.6 µM: [53]
33.3 µM: [58]
43.7 µM: [7]
43.1 µM: [28]
32.3 µM: [38]
50.4 µM: [10]
40.3 µM: [54]
38.3 µM: [32]
42.9 µM: [22]
57.2 µM: [3]
62.2 µM: [33]
48.7 µM: [31]
35.4 µM: [2]
70.7 µM: [24]
27.2 µM: [16]
55.9 µM: [30]
61.8 µM: [21]
37.6 µM: [51]
30.4 µM: [4] | [15]
22.7 µM: [57]
42.6 µM: [45]
47.8 µM: [41]
37.2 µM: [20]
67.9 µM: [40]
31.1 µM: [11]
> 10 µM: [56] | [18] | [37]
42.2 µM: [13]
47.6 µM: [12]
36.9 µM: [6] | [55]
not listed: [1] | [26] | [34] | [50]
> 100 µM: all other assays above
